This is an account of results in patent publication US20230061736A1, “GPR119 AGONISTS” (Kallyope, Inc., priority 2019, published 2023).

This assay has as its target T1, human GPR119 (hGPR119) (Homo sapiens, UniProt Q8TDV5).
T1 construct: expressed in transfected cells
T1 sequence (Q8TDV5 1-335): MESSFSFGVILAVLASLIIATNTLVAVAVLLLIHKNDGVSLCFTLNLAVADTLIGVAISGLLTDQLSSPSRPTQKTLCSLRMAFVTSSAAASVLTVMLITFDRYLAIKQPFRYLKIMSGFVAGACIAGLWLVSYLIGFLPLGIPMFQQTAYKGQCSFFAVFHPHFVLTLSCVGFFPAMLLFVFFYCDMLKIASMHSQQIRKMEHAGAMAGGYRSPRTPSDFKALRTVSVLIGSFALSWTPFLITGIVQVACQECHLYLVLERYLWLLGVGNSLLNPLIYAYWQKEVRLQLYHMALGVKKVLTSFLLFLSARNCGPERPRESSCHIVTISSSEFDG
The assay can be described thus: cAMP accumulation assay (cAMP Gs dynamic HTRF kit). Conditions: CHO-K1 cells stably expressing hGPR119, 4-parameter fit; for Emax: 1 h, % activity normalized to Max/Min controls; for EC50: cAMP accumulation. The class given is cell-based. A digest of the protocol:
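CHO-K1 cells stably expressing hGPR119, used as assay-ready frozen stocks at ~10,000 cells/well, exposed to compound dose-response in stimulation buffer with Tween 80 for 60 min at 37° C. cAMP read by HTRF (665/620 nm ratio), normalised to Max/Min controls; EC50 and Max activity from 4-parameter fit.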
A general note: Cyclic AMP is a second messenger, typically raised through Gs and lowered through Gi signalling.

What is called Emax is the size of the effect at its maximum, as opposed to the concentration needed. By EC50 is commonly meant the concentration that produces a half-maximal response. Molecule `O=C(Cc1ccc(OCCCC2CCN(c3ncc(Cl)cn3)CC2)cc1F)N1CC(CCNC(CO)CO)C1` [Example 56, 2-(4-(3-(1-(5-chloropyrimidin-2-yl)piperidin-4-yl)propoxy)-2-fluorophenyl)-1-(3-(2-((1,3-dihydroxypropan-2-yl)amino)ethyl)azetidin-1-yl)ethan-1-one] had a maximum response (Emax) of 100 to 130% and an EC50 not above 100 nM.

As to `O=C(Cc1ccc(OCCCC2CCN(c3ncc(Cl)cn3)CC2)cc1F)N1CC(CCNCC(CO)CO)C1` [Example 57, 2-(4-(3-(1-(5-chloropyrimidin-2-yl)piperidin-4-yl)propoxy)-2-fluorophenyl)-1-(3-(2-((3-hydroxy-2-(hydroxymethyl)propyl)amino)ethyl)azetidin-1-yl)ethan-1-one], the Emax was in the range of 100 to 130% and the concentration for a half-maximal effect (EC50) was not above 100 nM.

For the molecule `O=C(Cc1ccc(OCCCC2CCN(c3ncc(Cl)cn3)CC2)cc1F)N1CC(CCNCC(O)(CO)CO)C1` [Example 58, 2-(4-(3-(1-(5-chloropyrimidin-2-yl)piperidin-4-yl)propoxy)-2-fluorophenyl)-1-(3-(2-((2,3-dihydroxy-2-(hydroxymethyl)propyl)amino)ethyl)azetidin-1-yl)ethan-1-one], the maximal effect (Emax) was not below 130% and the 50% effective concentration (EC50) lay in the range of 100 to 1000 nM.

`O=C(Cc1ccc(OCCCC2CCN(c3ncc(Cl)cn3)CC2)cc1F)N1CC(CCNC(CO)(CO)CO)C1` [Example 59, 2-(4-(3-(1-(5-chloropyrimidin-2-yl)piperidin-4-yl)propoxy)-2-fluorophenyl)-1-(3-(2-((1,3-dihydroxy-2-(hydroxymethyl)propan-2-yl)amino)ethyl)azetidin-1-yl)ethan-1-one]: the maximum response (Emax) lay in the range of 100 to 130% and the half-maximal effective concentration (EC50) lay within 100 to 1000 nM.

`O=C(NCCNCCC1CN(C(=O)Cc2ccc(OCCCC3CCN(c4ncc(Cl)cn4)CC3)cc2F)C1)NC(CO)(CO)CO` [Example 60, 1-(2-((2-(1-(2-(4-(3-(1-(5-chloropyrimidin-2-yl)piperidin-4-yl)propoxy)-2-fluorophenyl)acetyl)azetidin-3-yl)ethyl)amino)ethyl)-3-(1,3-dihydroxy-2-(hydroxymethyl)propan-2-yl)urea] yielded an Emax not below 130% and an EC50 of 100 to 1000 nM.

Turning to `O=C(Cc1ccc(OCCCC2CCN(c3ncc(Cl)cn3)CC2)cc1F)N1CC(CCNC[C@H](O)[C@@H](O)[C@H](O)[C@H](O)CO)C1` [Example 61], the maximal effect (Emax) fell in the range of 100 to 130% and the concentration giving a half-maximal response (EC50) lay within 100 to 1000 nM.

The molecule `CCc1cnc(N2CCC(CCCOc3ccc(CC(=O)N4CC(CNCC(CO)CO)C4)c(F)c3)CC2)nc1` [Example 62, 2-(4-(3-(1-(5-ethylpyrimidin-2-yl)piperidin-4-yl)propoxy)-2-fluorophenyl)-1-(3-(((3-hydroxy-2-(hydroxymethyl)propyl)amino)methyl)azetidin-1-yl)ethan-1-one] had a maximal effect (Emax) not below 130% and an EC50 of 100 to 1000 nM.

`CCc1cnc(N2CCC(CCCOc3ccc(CC(=O)N4CC(CNCC(O)(CO)CO)C4)c(F)c3)CC2)nc1` [Example 63, 1-(3-(((2,3-dihydroxy-2-(hydroxymethyl)propyl)amino)methyl)azetidin-1-yl)-2-(4-(3-(1-(5-ethylpyrimidin-2-yl)piperidin-4-yl)propoxy)-2-fluorophenyl)ethan-1-one] returned a maximal effect (Emax) not below 130% and an EC50 not above 100 nM.

With `CCc1cnc(N2CCC(CCCOc3ccc(CC(=O)N4CC(CNC(CO)(CO)CO)C4)c(F)c3)CC2)nc1` [Example 64, 1-(3-(((1,3-dihydroxy-2-(hydroxymethyl)propan-2-yl)amino)methyl)azetidin-1-yl)-2-(4-(3-(1-(5-ethylpyrimidin-2-yl)piperidin-4-yl)propoxy)-2-fluorophenyl)ethan-1-one], the maximum response (Emax) was not below 130% and the 50% effective concentration (EC50) is not above 100 nM.

As for `CCc1cnc(N2CCC(CCCOc3ccc(CC(=O)N4CC(CNCCNC(=O)NC(CO)(CO)CO)C4)c(F)c3)CC2)nc1` [Example 65, 1-(1,3-dihydroxy-2-(hydroxymethyl)propan-2-yl)-3-(2-(((1-(2-(4-(3-(1-(5-ethylpyrimidin-2-yl)piperidin-4-yl)propoxy)-2-fluorophenyl)acetyl)azetidin-3-yl)methyl)amino)ethyl)urea], the Emax was in the range of 100 to 130% and the EC50 was not above 100 nM.

`CCc1cnc(N2CCC(CCCOc3cc(F)c(CC(=O)N4CC(CNCC(O)(CO)CO)C4)c(F)c3)CC2)nc1` [Example 67, 1-(3-(((2,3-dihydroxy-2-(hydroxymethyl)propyl)amino)methyl)azetidin-1-yl)-2-(4-(3-(1-(5-ethylpyrimidin-2-yl)piperidin-4-yl)propoxy)-2,6-difluorophenyl)ethan-1-one] had an Emax of 100 to 130% and an EC50 not above 100 nM.

For `CCc1cnc(N2CCC(CCCOc3cc(F)c(CC(=O)N4CC(CNCCNC(=O)NC(CO)(CO)CO)C4)c(F)c3)CC2)nc1` [Example 68, 1-(1,3-dihydroxy-2-(hydroxymethyl)propan-2-yl)-3-(2-(((1-(2-(4-(3-(1-(5-ethylpyrimidin-2-yl)piperidin-4-yl)propoxy)-2,6-difluorophenyl)acetyl)azetidin-3-yl)methyl)amino)ethyl)urea], the Emax was not below 130% and the half-maximal effective concentration (EC50) was not above 100 nM.

In turn, `CCCc1cnc(N2CCC(CCCOc3ccc(CC(=O)N4CC(CNCC(CO)CO)C4)c(F)c3)CC2)nc1` [Example 70, 2-(2-fluoro-4-(3-(1-(5-propylpyrimidin-2-yl)piperidin-4-yl)propoxy)phenyl)-1-(3-(((3-hydroxy-2-(hydroxymethyl)propyl)amino)methyl)azetidin-1-yl)ethan-1-one] yielded an Emax of 100 to 130% and an EC50 not above 100 nM.

For the molecule `CCCc1cnc(N2CCC(CCCOc3ccc(CC(=O)N4CC(CNCC(O)(CO)CO)C4)c(F)c3)CC2)nc1` [Example 71, 1-(3-(((2,3-dihydroxy-2-(hydroxymethyl)propyl)amino)methyl)azetidin-1-yl)-2-(2-fluoro-4-(3-(1-(5-propylpyrimidin-2-yl)piperidin-4-yl)propoxy)phenyl)ethan-1-one], the maximal effect (Emax) lay in the range of 100 to 130% and the concentration for a half-maximal effect (EC50) was not above 100 nM.

Consider `CCCc1cnc(N2CCC(CCCOc3ccc(CC(=O)N4CC(CNC(CO)(CO)CO)C4)c(F)c3)CC2)nc1` [Example 72, 1-(3-(((1,3-dihydroxy-2-(hydroxymethyl)propan-2-yl)amino)methyl)azetidin-1-yl)-2-(2-fluoro-4-(3-(1-(5-propylpyrimidin-2-yl)piperidin-4-yl)propoxy)phenyl)ethan-1-one], for which the Emax is not below 130% and the concentration for a half-maximal effect (EC50) was not above 100 nM.

Molecule `CCCc1cnc(N2CCC(CCCOc3ccc(CC(=O)N4CC(CNCCNC(=O)NC(CO)(CO)CO)C4)c(F)c3)CC2)nc1` [Example 73, 1-(1,3-dihydroxy-2-(hydroxymethyl)propan-2-yl)-3-(2-(((1-(2-(2-fluoro-4-(3-(1-(5-propylpyrimidin-2-yl)piperidin-4-yl)propoxy)phenyl)acetyl)azetidin-3-yl)methyl)amino)ethyl)urea] returned an Emax of 100 to 130% and a concentration giving a half-maximal response (EC50) of 100 to 1000 nM.

In turn, `CCCc1cnc(N2CCC(CCCOc3ccc(CC(=O)N4CC(CNC[C@H](O)[C@@H](O)[C@H](O)[C@H](O)CO)C4)c(F)c3)CC2)nc1` [Example 74, 2-(2-fluoro-4-(3-(1-(5-propylpyrimidin-2-yl)piperidin-4-yl)propoxy)phenyl)-1-(3-((((2S,3R,4R,5R)-2,3,4,5,6-pentahydroxyhexyl)amino)methyl)azetidin-1-yl)ethan-1-one] had an Emax not below 130% and a concentration giving a half-maximal response (EC50) of 100 to 1000 nM.

As for `CCCc1cnc(N2CCC(CCCOc3cc(F)c(CC(=O)N4CC(CNCC(O)(CO)CO)C4)c(F)c3)CC2)nc1` [Example 75, 2-(2,6-difluoro-4-(3-(1-(5-propylpyrimidin-2-yl)piperidin-4-yl)propoxy)phenyl)-1-(3-(((2,3-dihydroxy-2-(hydroxymethyl)propyl)amino)methyl)azetidin-1-yl)ethan-1-one], the maximal effect (Emax) is 100 to 130% and the EC50 is not above 100 nM.

In the case of `CCCc1cnc(N2CCC(CCCOc3cc(F)c(CC(=O)N4CC(CNC(CO)(CO)CO)C4)c(F)c3)CC2)nc1` [Example 76, 2-(2,6-difluoro-4-(3-(1-(5-propylpyrimidin-2-yl)piperidin-4-yl)propoxy)phenyl)-1-(3-(((1,3-dihydroxy-2-(hydroxymethyl)propan-2-yl)amino)methyl)azetidin-1-yl)ethan-1-one], the maximal effect (Emax) was not below 130% and the concentration for a half-maximal effect (EC50) is not above 100 nM.

In turn, `CCCc1cnc(N2CCC(CCCOc3cc(F)c(CC(=O)N4CC(CNCCNC(=O)NC(CO)(CO)CO)C4)c(F)c3)CC2)nc1` [Example 77, 1-(2-(((1-(2-(2,6-difluoro-4-(3-(1-(5-propylpyrimidin-2-yl)piperidin-4-yl)propoxy)phenyl)acetyl)azetidin-3-yl)methyl)amino)ethyl)-3-(1,3-dihydroxy-2-(hydroxymethyl)propan-2-yl)urea] showed an Emax not below 130% and an EC50 of 100 to 1000 nM.

Consider `CCCc1cnc(N2CCC(CCCOc3cc(F)c(CC(=O)N4CC(CNC[C@H](O)[C@@H](O)[C@H](O)[C@H](O)CO)C4)c(F)c3)CC2)nc1` [Example 78, 2-(2,6-difluoro-4-(3-(1-(5-propylpyrimidin-2-yl)piperidin-4-yl)propoxy)phenyl)-1-(3-((((2S,3R,4R,5R)-2,3,4,5,6-pentahydroxyhexyl)amino)methyl)azetidin-1-yl)ethan-1-one], for which the Emax lay in the range of 100 to 130% and the concentration giving a half-maximal response (EC50) is not above 100 nM.
